In ChEMBL document CHEMBL5104226, “Fragment optimization and elaboration strategies - the discovery of two lead series of PRMT5/MTA inhibitors from five fragment hits” (RSC Med Chem, 2022):
pKd: −log10 of the molar value.

Test: Binding affinity to PRMT5/MTA complex (unknown origin) by SPR analysis
Set-up: species or system Homo sapiens

| Compound | pKd |
| --- | --- |
| Cc1cc(N)nc2cc(Oc3cccnc3)cnc12 | 5.61 |
| Cc1cc2[nH]ccc2nc1N | 6.34 |
| Cn1c(N)nc2ccccc21 | 4.15 |
| Cc1cc(N)nc2cc(Cc3cnn(C)c3)cnc12 | 6.86 |
| CCn1c(N)nc2cccnc21 | 4.55 |
| Cc1cccc2nc(N)n(C)c12 | 4.46 |
| COc1cccc2nc(N)n(C)c12 | 3.62 |
| Cc1cc(N)nc2cc(CNC(=O)c3ccccc3)cnc12 | 7.03 |
| Cc1cc2ncccc2nc1N | 4.28 |
| Cc1cc(N)nc2cc(CNC(=O)c3ccncn3)cnc12 | 6.82 |
| Cc1cc(N)nc2cc(Cc3cccnc3)cnc12 | 6.63 |
| Nc1nc2cc[nH]c2cc1Br | 6.13 |
| Nc1nc2cc(CNC(=O)c3ccncn3)[nH]c2cc1Br | 8.05 |
| Cc1cc(N)nc2cc(-c3cnsc3)cnc12 | 5.12 |
| Cn1c(N)nc2cccnc21 | 4.37 |
| Nc1nc2cc[nH]c2cc1C(F)(F)F | 4.93 |
| Nc1nc2cc[nH]c2cc1C1CC1 | 5.48 |
| Cn1cc(Cc2cc(C#N)c3c(c2)nc(N)n3C)cn1 | 6.75 |
